# From patent publication US20090215758A1, “Use of 2,5-Disubstituted Thiazol-4-One Derivatives in Drugs” (Gruenenthal GmbH, priority 2005, published 2009)
# Structures can show the parent of a compound that is named as a salt.
# Tests used:
# [1] = biological target: T1, vanilloid receptor 1 (VR1/TRPV1) of the rat species (Rattus norvegicus, UniProt O35433); test: Functional study on vanilloid receptor 1, FLIPR Ca2+ assay in rat dorsal root ganglia cells; assay type: cell-based; conditions: for inhibition at 10 µM / activation at 10 µM / VR1 (rat) (% inhibition compared to 10 μM CP) / VR1 (rat) (% stimulation compared to 10 μM CP): test compound 10 μM; for inhibition at 10 µM / VR1 (rat) (% inhibition compared to 10 μM CP): 5 min incubation, then 100 nM capsaicin, relative to maximum inhibition with 10 μM capsaicin; for inhibition at 10 µM: read-out: VR1 (rat) (% inhibition compared to 10 μM CP); for activation at 10 µM / VR1 (rat) (% stimulation compared to 10 μM CP): Ca2+ signal relative to 10 μM capsaicin (CP); for activation at 10 µM: read-out: VR1 (rat) (% stimulation compared to 10 μM CP); for EC50: unit inferred
# T1 construct: The spinal column is removed from beheaded rats; from tissue; host or cells: primary cells from rat dorsal root ganglia (DRGs)
# T1 sequence (O35433 whole entry): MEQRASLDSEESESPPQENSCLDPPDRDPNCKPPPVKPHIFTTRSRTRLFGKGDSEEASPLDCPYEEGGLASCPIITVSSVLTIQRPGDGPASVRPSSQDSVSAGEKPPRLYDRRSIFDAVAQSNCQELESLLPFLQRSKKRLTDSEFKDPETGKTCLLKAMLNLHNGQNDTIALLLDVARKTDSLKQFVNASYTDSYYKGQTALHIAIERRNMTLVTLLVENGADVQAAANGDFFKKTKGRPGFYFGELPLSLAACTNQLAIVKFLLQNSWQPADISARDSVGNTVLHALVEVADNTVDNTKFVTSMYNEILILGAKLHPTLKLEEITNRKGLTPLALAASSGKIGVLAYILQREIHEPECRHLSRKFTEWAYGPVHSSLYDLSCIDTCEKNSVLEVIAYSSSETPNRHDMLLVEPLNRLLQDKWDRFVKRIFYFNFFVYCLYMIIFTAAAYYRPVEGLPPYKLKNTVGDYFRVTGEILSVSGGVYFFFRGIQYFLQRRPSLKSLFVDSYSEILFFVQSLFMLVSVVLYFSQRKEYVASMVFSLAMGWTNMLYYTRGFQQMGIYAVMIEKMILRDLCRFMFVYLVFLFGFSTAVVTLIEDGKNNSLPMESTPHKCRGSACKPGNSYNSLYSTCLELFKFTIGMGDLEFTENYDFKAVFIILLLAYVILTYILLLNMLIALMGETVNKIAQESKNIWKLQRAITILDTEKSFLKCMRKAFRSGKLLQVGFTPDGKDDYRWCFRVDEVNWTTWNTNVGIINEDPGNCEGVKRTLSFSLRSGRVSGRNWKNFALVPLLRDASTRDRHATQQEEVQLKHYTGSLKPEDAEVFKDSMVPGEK
# Protocol: The agonistic or antagonistic action of the substances to be studied on the vanilloid receptor 1 (VR1/TRPV1) of the rat species can be determined with the following assay. In this assay, the Ca^2+ current through the receptor channel is quantified with the aid of a Ca^2+-sensitive dye (Fluo-4 type, Molecular Probes Europe BV, Leiden the Netherlands) in a fluorescent imaging plate reader (FLIPR, Molecular Devices, Sunnyvale, USA).
# Complete medium: 50 ml HAMS F12 Nutrient Mixture (Gibco Invitrogen GmbH, Karlsruhe, Germany) with 10% by volume of FCS (fetal calf serum, Gibco Invitrogen GmbH, Karlsruhe, Germany, heat-inactivated);
# 2 mM L-glutamine (Sigma, Munich, Germany);
# 1% by weight of AA solution (antibiotic/antimycotic solution, PAA, Pasching, Austria) and 25 ng/ml of NGF medium (2.5 S, Gibco Invitrogen GmbH, Karlsruhe, Germany)
# Cell culture plate: poly-D-lysine-coated, black 96-hole plates with a clear bottom (96 well black/clear plate, BD Biosciences, Heidelberg, Germany) are additionally coated with laminin (Gibco Invitrogen GmbH, Karlsruhe, Germany) by diluting laminin to a concentration of 100 μg/ml with PBS (Ca—Mg-free PBS, Gibco Invitrogen GmbH, Karlsruhe, Germany). Aliquots having a concentration of 100 μg/ml of laminin are withdrawn and stored at −20° C. The aliquots are diluted with PBS in a ratio of 1:10 to 10 μg/ml of laminin and in each case 50 μl of the solution are pipetted into a well of the cell culture plate. The cell culture plates are incubated at 37° C. for at least two hours, the supernatant solution is removed by suction and the wells are each washed twice with PBS. The coated cell culture plates are stored with supernatant PBS which is not removed until directly before the application of the cells.
# The spinal column is removed from beheaded rats and placed directly into cold HBSS buffer (Hank's buffered saline solution, Gibco Invitrogen GmbH, Karlsruhe, Germany), i.e. placed in an ice bath, which has been admixed with 1% by volume of an AA solution (antibiotic/antimycotic solution, PAA, Pasching, Austria). The spinal column is severed longitudinally and removed from the spinal canal together with fasciae. Subsequently, the dorsal root ganglia (DRGs) are removed and in turn stored in cold HBSS buffer admixed with 1% by volume of an AA solution. The DRGs freed completely of blood residues and spinal nerves are in each case transferred to 500 μl of cold type 2 collagenase (PAA, Pasching, Austria) and incubated at 37° C. for 35 minutes. […] After complete incubation, the enzyme solution is cautiously pipetted off and the remaining DRGs are each suspended with 500 μl of complete medium.
# The DRGs are each suspended repeatedly, drawn through cannulas No. 1, No. 12 and No. 16 by means of a syringe and transferred to 50 ml Falcon tubes which are made up to 15 ml with complete medium. The contents of each Falcon tube are in each case filtered through a 70 μm Falcon filter insert and centrifuged at 1200 revolutions and room temperature for 10 minutes. The resulting pellet is in each case taken up in 250 μl of complete medium and the cell count is determined.
# The number of cells in the suspension is adjusted to 3 times 10^5 per ml and in each case 150 μl of this suspension are added to one well of the cell culture plates coated as described above.
# Subsequently, the cells are laden with 2 μM Fluo-4 and 0.01% by volume of Pluronic F127 (Molecular Probes Europe BV, Leiden, the Netherlands) in HBSS buffer (Hank's buffered saline solution, Gibco Invitrogen GmbH, Karlsruhe, Germany) at 37° C. for 30 min, washed 3× with HBSS buffer and, after a further incubation of 15 minutes, used in the FLIPR assay at room temperature for Ca^2+ measurement. The Ca^2+-dependent fluorescence is measured before and after addition of substances (λex=488 nm, λem=540 nm). The quantification is effected by the measurement of the highest fluorescence intensity (FC, fluorescence counts) over the time.
# VR1 (human) = biological target: T2, VR1 (human) (Homo sapiens, UniProt Q8NER1); test: Functional study on vanilloid receptor (VR1), FLIPR Ca2+ assay in CHO K1 cells stably transfected with the VR1 gene; assay type: cell-based; conditions: for inhibition at 10 µM / activation at 10 µM: CHO-K1, test compound 10 μM; for inhibition at 10 µM / VR1 (human) (% inhibition compared to 10 μM CP): 5 min incubation, then 100 nM capsaicin, compared to 10 μM CP; for activation at 10 µM / VR1 (human) (% stimulation compared to 10 μM CP): Ca2+ signal relative to 10 μM capsaicin (CP); for activation at 10 µM: read-out: VR1 (human) (% stimulation compared to 10 μM CP); for EC50: unit inferred; for VR1 (human) (% inhibition compared to 10 μM CP) / VR1 (human) (% stimulation compared to 10 μM CP): test compound 10 μM
# T2 construct: expressed in transfected cells; host or cells: CHO K1 cells (ECACC), stably transfected
# T2 sequence (Q8NER1 whole entry): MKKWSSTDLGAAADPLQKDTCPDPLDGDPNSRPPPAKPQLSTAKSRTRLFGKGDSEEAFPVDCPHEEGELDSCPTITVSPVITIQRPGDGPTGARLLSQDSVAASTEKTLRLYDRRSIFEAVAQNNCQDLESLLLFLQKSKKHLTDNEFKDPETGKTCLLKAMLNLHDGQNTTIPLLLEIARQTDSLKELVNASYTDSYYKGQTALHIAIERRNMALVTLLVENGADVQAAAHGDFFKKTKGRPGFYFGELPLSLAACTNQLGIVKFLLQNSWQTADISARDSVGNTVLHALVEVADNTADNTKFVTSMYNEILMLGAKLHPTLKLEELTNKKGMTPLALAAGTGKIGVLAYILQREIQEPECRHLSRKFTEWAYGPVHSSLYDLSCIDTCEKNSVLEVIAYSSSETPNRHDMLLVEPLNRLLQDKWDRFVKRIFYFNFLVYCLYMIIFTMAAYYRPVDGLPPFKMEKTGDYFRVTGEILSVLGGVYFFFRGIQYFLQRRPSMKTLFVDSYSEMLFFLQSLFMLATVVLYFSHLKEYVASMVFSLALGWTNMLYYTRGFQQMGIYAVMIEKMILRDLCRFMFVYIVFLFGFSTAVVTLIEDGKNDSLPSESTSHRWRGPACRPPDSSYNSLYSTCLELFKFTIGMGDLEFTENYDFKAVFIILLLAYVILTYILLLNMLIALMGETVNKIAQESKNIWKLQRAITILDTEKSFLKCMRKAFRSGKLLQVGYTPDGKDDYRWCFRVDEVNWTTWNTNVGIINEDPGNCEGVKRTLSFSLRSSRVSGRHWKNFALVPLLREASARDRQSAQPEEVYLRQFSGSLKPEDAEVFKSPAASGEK
# From the text: The agonistic or antagonistic action of the substances to be tested on vanilloid receptor (VR1) can also be determined with the assay which follows. In this assay, the Ca^2+ current through the channel is quantified with the aid of a Ca^2+-sensitive dye (Fluo-4 type, Molecular Probes, Europe BV, Leiden, the Netherlands) in a fluorescent imaging plate reader (FLIPR, Molecular Devices, Sunnyvale, USA).
# Chinese hamster ovary cells (CHO K1 cells, European Collection of Cell Cultures (ECACC) Great Britain) are transfected stably with the VR1 gene. For functional studies, these cells are plated out onto poly-D-lysine-coated black 96-well plates with a clear bottom (BD Biosciences, Heidelberg, Germany) in a density of 25 000 cells/well. The cells are incubated overnight at 37° C. and 5% CO2 in a culture medium (Ham's Nutrient Mixture F12, 10% by volume of FCS (fetal calf serum), 18 μg/ml of L-proline). The next day, the cells are incubated with Fluo-4 (Fluo-4 2 μM, Pluronic F127 0.01% by volume, Molecular Probes in HBSS (Hank's buffered saline solution), Gibco Invitrogen GmbH, Karlsruhe, Germany) at 37° C. for 30 minutes. Subsequently, the plates are washed 3 times with HBSS buffer and, after a further incubation of 15 minutes at room temperature, used for Ca^2+ measurement in FLIPR. The Ca^2+-dependent fluorescence is measured before and after addition of the substances to be studied (wavelength λex=488 nm, λem=540 nm). The quantification is effected by measuring the highest fluorescence intensity (FC, fluorescence counts) over the time.
# The FLIPR protocol consists of 2 substance additions. First, the substances to be tested (10 μM) are pipetted onto the cells and the Ca current is compared with the control (capsaicin 10 μM) (% activation based on the Ca^2+ signal after addition of 10 μM capsaicin). After incubation for 5 minutes, 100 nM capsaicin is applied and the current of Ca^2+ is likewise determined.
SMILES,inhibition at 10 µM [1] [%],activation at 10 µM [1] [%],inhibition at 10 µM (VR1 (human)) [%],activation at 10 µM (VR1 (human)) [%],EC50 [1] [µM],EC50 (VR1 (human)) [µM],VR1 (rat) (% inhibition compared to 10 μM CP) [1] [%],VR1 (rat) (% stimulation compared to 10 μM CP) [1] [%],VR1 (human) (% inhibition compared to 10 μM CP) (VR1 (human)) [%],VR1 (human) (% stimulation compared to 10 μM CP) (VR1 (human)) [%]
"O=C1N=C(N2CCN(c3ncccc3Cl)CC2)SC1=Cc1ccc2ccccc2c1 [Example 49, 2-[4-(3-chloropyridin-2-yl)piperazin-1-yl]-5-naphthalen-2-ylmethylenethiazol-4-one]",78.5,0.4,34.1,0,–,–,–,–,–,–
"Cc1ccc(N2CCN(C3=NC(=O)C(=Cc4ccc(C(C)(C)C)cc4)S3)CC2)nn1 [Example 154, 5-(4-tert-butylbenzylidene)-2-[4-(6-methylpyridazin-3-yl)piperazin-1-yl]thiazol-4-one]",54.1,3.99,34.2,6.56,–,–,–,–,–,–
"O=C1N=C(N2CCOCC2)SC1=Cc1ccccn1 [Example 210, 2-morpholin-4-yl-5-pyridin-2-ylmethylenethiazol-4-one]",23,2.22,3.03,1.83,–,–,–,–,–,–
"CC(=CC=C1SC(N2CCOCC2)=NC1=O)c1cccc(C(F)(F)F)c1 [Example 44, 2-morpholin-4-yl-5-[3-(3-trifluoromethylphenyl)but-2-enylidene]thiazol-4-one]",64.3,39.6,34.3,10.9,–,–,–,–,–,–
"COCCNC1=NC(=O)C(=Cc2ccc(C(C)(C)C)cc2)S1 [Example 216, 5-(4-tert-butylbenzylidene)-2-(2-methoxyethylamino)thiazol-4-one hydrobromide]",22.1,1.24,51.1,2.08,1.5,5.4,–,–,–,–
"O=C1N=C(N2CCSCC2)SC1=Cc1ccccc1C(F)(F)F [Example 22, 2-thiomorpholin-4-yl-5-(2-trifluoromethylbenzylidene)thiazol-4-one]",88.1,116,80.8,64,8.48,9.06,–,–,–,–
"CC(C)c1ccc(C=C2SC(N3CCSCC3)=NC2=O)cc1 [Example 136, 5-(4-isopropylbenzylidene)-2-thiomorpholin-4-ylthiazol-4-one]",96.9,84,86.7,114,–,–,–,–,–,–
"Cc1ccc(C=C2SC(N3CCOCC3)=NC2=O)cc1 [Example 218, 5-(4-methylbenzylidene)-2-morpholin-4-ylthiazol-4-one]",–,–,–,–,–,–,78.83,55.76,12.88,17.91
"Br.Cc1ccc(C=C2SC(N3CCOCC3)=NC2=O)cc1 [Example 176, 5-(4-methylbenzylidene)-2-morpholin-4-ylthiazol-4-one hydrobromide]",97.5,44.7,–,14.5,–,–,–,–,35.32,–
"COc1ccc(C=C2SC(N3CCOCC3)=NC2=O)cc1OCc1ccccc1 [Example 13, 5-(3-benzyloxy-4-methoxybenzylidene)-2-morpholin-4-ylthiazol-4-one]",46.2,42.1,11.1,6.15,–,–,–,–,–,–
"CC(C)(C)c1ccc(C=C2SC(N3CCOCC3)=NC2=O)cc1 [Example 222, 5-(4-tert-butylbenzylidene)-2-morpholin-4-ylthiazol-4-one]",–,–,–,–,–,–,98.64,102.46,79.67,41.92
"O=C1N=C(N2CCSCC2)SC1=Cc1ccc2ccccc2c1 [Example 54, 5-naphthalen-2-ylmethylene-2-thiomorpholin-4-ylthiazol-4-one]",87.9,96.1,81.7,79.6,2.5,> 25,–,–,–,–
